Reference: patent US12139558B2, “Method of manufacturing a pharmaceutical composition” (Ferring B.V., priority 2017, dated 2024)
Blank lines part the entries; values can stand above or below the compound they belong to. Starred links: 1 amine or outer side, 2 acyl side, 3 side chain; linkers in the order of their positions; H or OH if unused. Positions of bridges follow the written chain, without caps; N, C: chain ends. Residues, ends and D or L forms follow the SMILES beside them. X1 = O=C(CCC[*:2])[*:1]

How the values were obtained:
[1] = assay type: physicochemical
Experimental: The next day the solids were analysed by HPLC for purity and assay (FIG. 3b), TG/DTA for ease of mass loss/thermal events (FIG. 4b) as well as polarised light microscopy (PLM) and XRPD for morphology and crystalline content. […] These mass losses correspond to weakly surface bound acetonitrile and water, and are not indicative of any solvation of the crystal form itself.

[2] = Gravimetric vapour sorption (GVS) of crystals; assay type: physicochemical; settings: 25° C.
Experimental: Gravimetric vapour sorption (GVS) was performed on an SMS DVS-1. 1.4 mg of crystals and powder were added into an Al pan and exposed to stepwise relative humidity (RH) changes during two consecutive cycles: 20-30-40-50-60-70-80-70-60-50-40-30-20-10-0-10-20-30-40-50-60-70-80-90-80-70-60-50-40-30-20-10-0% RH in an open loop mode. The temperature was maintained at 25° C. and pure nitrogen flow rate of 200 ml/min was used. The dm/dt criteria applied was 0.001 weight-%/min during a 5 minute window, with a maximum time of 150 minutes for all steps, with the exception of steps at 0% RH that were set to 6 hours.

[3] = system: Prader-Willi Syndrome patients; settings: after 15 days, vs placebo treated patients; cited from earlier work

total mass loss (TG/DTA) ([1]; up to 110° C., crystals of Example 4, FIG. 4b): approximately 0.8%
first mass loss (TG/DTA) ([1]; up to approximately 60° C., weakly surface bound acetonitrile and water): approximately 0.5%
second mass loss (TG/DTA) ([1]; up to approximately 110° C., weakly surface bound acetonitrile and water): approximately 0.3%
SMILES: CC[C@H](C)[C@@H]1NC(=O)[C@H](Cc2ccc(OC)cc2)NC(=O)CCCSC[C@@H](C(=O)N2CCC[C@H]2C(=O)N[C@@H](CC(C)C)C(=O)NCC(N)=O)NC(=O)[C@H](CC(N)=O)NC(=O)[C@H](CCC(N)=O)NC1=O [Form II, carbetocin] (Y(Me)IQNCPLG-NH2; linker N-5 via X1)

GVS isotherm plateau (monohydrate plus some loosely bound surface water) ([2]; crystals of Example 5, FIG. 8b): around 2 % (w/w)
GVS second plateau, additional (pentahydrate with some loosely bound surface water) ([2]; crystals of Example 5, FIG. 8b): approximately 8 % (w/w)
relative humidity at which the pentahydrate exists ([2]; sorption): ≥ 60 % RH
SMILES: CC[C@H](C)[C@@H]1NC(=O)[C@H](Cc2ccc(OC)cc2)NC(=O)CCCSC[C@@H](C(=O)N2CCC[C@H]2C(=O)N[C@@H](CC(C)C)C(=O)NCC(N)=O)NC(=O)[C@H](CC(N)=O)NC(=O)[C@H](CCC(N)=O)NC1=O [Form III, carbetocin] (Y(Me)IQNCPLG-NH2; linker N-5 via X1)

SMILES: CC[C@H](C)[C@@H]1NC(=O)[C@H](Cc2ccc(OC)cc2)NC(=O)CCCSC[C@@H](C(=O)N2CCC[C@H]2C(=O)N[C@@H](CC(C)C)C(=O)NCC(N)=O)NC(=O)[C@H](CC(N)=O)NC(=O)[C@H](CCC(N)=O)NC1=O [carbetocin, 1-butanoic acid-2-(O-methyl-L-tyrosine)-1-carbaoxytocin] (Y(Me)IQNCPLG-NH2; linker N-5 via X1)
improvement over placebo in measurements of hyperphagia, obsessive compulsive disorder, food seeking behaviour and clinical global impression [3]: statistically significant improvement over placebo treated patients
